Laboratory results published in PubChem BioAssay (NCI).
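GI50: concentration for 50% inhibition of growth. TGI denotes the concentration required for complete inhibition of growth.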

Experiments:
Assay in all cases: DTP human tumour cell line panel, 384-well format
786-0 renal = test system: 786-0 renal
A498 renal = test system: A498 renal
A549 NSCLC = test system: A549 NSCLC
ACHN renal = test system: ACHN renal
BT-549 breast = test system: BT-549 breast
CAKI-1 renal = test system: CAKI-1 renal
CCRF-CEM leukemia = test system: CCRF-CEM leukemia
COLO 205 colon = test system: COLO 205 colon
DU-145 prostate = test system: DU-145 prostate
EKVX NSCLC = test system: EKVX NSCLC
HCC-2998 colon = test system: HCC-2998 colon
HCT-15 colon = test system: HCT-15 colon
HL-60(TB) leukemia = test system: HL-60(TB) leukemia
HOP-62 NSCLC = test system: HOP-62 NSCLC
HOP-92 NSCLC = test system: HOP-92 NSCLC
HS 578T breast = test system: HS 578T breast
HT29 colon = test system: HT29 colon
IGROV1 ovarian = test system: IGROV1 ovarian
K-562 leukemia = test system: K-562 leukemia
KM12 colon = test system: KM12 colon
LOX IMVI melanoma = test system: LOX IMVI melanoma
M14 melanoma = test system: M14 melanoma
MALME-3M melanoma = test system: MALME-3M melanoma
MCF7 breast = test system: MCF7 breast
MDA-MB-231 breast = test system: MDA-MB-231 breast
MDA-MB-435 melanoma = test system: MDA-MB-435 melanoma
MDA-MB-468 breast = test system: MDA-MB-468 breast
MOLT-4 leukemia = test system: MOLT-4 leukemia
NCI-H226 lung = test system: NCI-H226 lung
NCI-H23 lung = test system: NCI-H23 lung
NCI-H322M lung = test system: NCI-H322M lung
NCI-H460 NSCLC = test system: NCI-H460 NSCLC
NCI-H522 lung = test system: NCI-H522 lung
NCI/ADR-RES ovarian = test system: NCI/ADR-RES ovarian
OVCAR-3 ovarian = test system: OVCAR-3 ovarian
OVCAR-4 ovarian = test system: OVCAR-4 ovarian
OVCAR-5 ovarian = test system: OVCAR-5 ovarian
OVCAR-8 ovarian = test system: OVCAR-8 ovarian
PC-3 prostate = test system: PC-3 prostate
RPMI-8226 leukemia = test system: RPMI-8226 leukemia
RXF 393 renal = test system: RXF 393 renal
SF-268 CNS = test system: SF-268 CNS
SF-295 CNS = test system: SF-295 CNS
SF-539 CNS = test system: SF-539 CNS
SK-MEL-28 melanoma = test system: SK-MEL-28 melanoma
SK-MEL-5 melanoma = test system: SK-MEL-5 melanoma
SK-OV-3 ovarian = test system: SK-OV-3 ovarian
SN12C renal = test system: SN12C renal
SNB-19 CNS = test system: SNB-19 CNS
SNB-75 CNS = test system: SNB-75 CNS
SR leukemia = test system: SR leukemia
SW-620 colon = test system: SW-620 colon
T-47D breast = test system: T-47D breast
TK-10 renal = test system: TK-10 renal
UACC-257 melanoma = test system: UACC-257 melanoma
UACC-62 melanoma = test system: UACC-62 melanoma
UO-31 renal = test system: UO-31 renal

CCOCCOC[C@H]1CCCN(c2ccnc3sc(C(N)=O)c(N)c23)C1
GI50 ([…]-0 renal): 43.9 µM
TGI (786-0 renal): > 100 µM
GI50 (A498 renal): 13.9 µM
TGI (A498 renal): > 100 µM
GI50 (A549 NSCLC): > 100 µM
TGI (A549 NSCLC): > 100 µM
GI50 (ACHN renal): 44.9 µM
TGI (ACHN renal): > 100 µM
GI50 (BT-549 breast): 79.1 µM
TGI (BT-549 breast): > 100 µM
GI50 (CAKI-1 renal): > 100 µM
TGI (CAKI-1 renal): > 100 µM
GI50 (CCRF-CEM leukemia): 1.43 µM
TGI (CCRF-CEM leukemia): 11.2 µM
GI50 (COLO 205 colon): 61.6 µM
TGI (COLO 205 colon): > 100 µM
GI50 (DU-145 prostate): > 100 µM
TGI (DU-145 prostate): > 100 µM
GI50 (EKVX NSCLC): 35.1 µM
TGI (EKVX NSCLC): > 100 µM
GI50 (HCC-2998 colon): > 100 µM
TGI (HCC-2998 colon): > 100 µM
GI50 (HCT-15 colon): > 100 µM
TGI (HCT-15 colon): > 100 µM
GI50 (HL-60(TB) leukemia): 13.5 µM
TGI (HL-60(TB) leukemia): 63.8 µM
GI50 (HOP-62 NSCLC): 18.5 µM
TGI (HOP-62 NSCLC): > 100 µM
GI50 (HOP-92 NSCLC): > 100 µM
TGI (HOP-92 NSCLC): > 100 µM
GI50 (HS 578T breast): > 100 µM
TGI (HS 578T breast): > 100 µM
GI50 (HT29 colon): > 100 µM
TGI (HT29 colon): > 100 µM
GI50 (IGROV1 ovarian): 29.6 µM
TGI (IGROV1 ovarian): > 100 µM
GI50 (K-562 leukemia): 4.6 µM
TGI (K-562 leukemia): > 100 µM
GI50 (KM12 colon): 46.7 µM
TGI (KM12 colon): > 100 µM
GI50 (LOX IMVI melanoma): 16.9 µM
TGI (LOX IMVI melanoma): > 100 µM
GI50 (M14 melanoma): > 100 µM
TGI (M14 melanoma): > 100 µM
GI50 (MALME-3M melanoma): > 100 µM
TGI (MALME-3M melanoma): > 100 µM
GI50 (MCF7 breast): 23 µM
TGI (MCF7 breast): > 100 µM
GI50 (MDA-MB-231 breast): 82.3 µM
TGI (MDA-MB-231 breast): > 100 µM
GI50 (MDA-MB-435 melanoma): > 100 µM
TGI (MDA-MB-435 melanoma): > 100 µM
GI50 (MDA-MB-468 breast): 1.34 µM
TGI (MDA-MB-468 breast): 7.04 µM
GI50 (MOLT-4 leukemia): 3.13 µM
TGI (MOLT-4 leukemia): 23.1 µM
GI50 (NCI-H226 lung): 90.9 µM
TGI (NCI-H226 lung): > 100 µM
GI50 (NCI-H23 lung): 7.19 µM
TGI (NCI-H23 lung): > 100 µM
GI50 (NCI-H322M lung): 13.4 µM
TGI (NCI-H322M lung): > 100 µM
GI50 (NCI-H460 NSCLC): 11.4 µM
TGI (NCI-H460 NSCLC): > 100 µM
GI50 (NCI-H522 lung): 5.77 µM
TGI (NCI-H522 lung): > 100 µM
GI50 (NCI/ADR-RES ovarian): 3.53 µM
TGI (NCI/ADR-RES ovarian): 27.6 µM
GI50 (OVCAR-3 ovarian): 23.8 µM
TGI (OVCAR-3 ovarian): > 100 µM
GI50 (OVCAR-4 ovarian): 34.1 µM
TGI (OVCAR-4 ovarian): > 100 µM
GI50 (OVCAR-5 ovarian): > 100 µM
TGI (OVCAR-5 ovarian): > 100 µM
GI50 (OVCAR-8 ovarian): 15.2 µM
TGI (OVCAR-8 ovarian): > 100 µM
GI50 (PC-3 prostate): 55.1 µM
TGI (PC-3 prostate): > 100 µM
GI50 (RPMI-8226 leukemia): 0.499 µM
TGI (RPMI-8226 leukemia): 14.4 µM
GI50 (RXF 393 renal): 12.9 µM
TGI (RXF 393 renal): > 100 µM
GI50 (SF-268 CNS): > 100 µM
TGI (SF-268 CNS): > 100 µM
GI50 (SF-295 CNS): 59.3 µM
TGI (SF-295 CNS): > 100 µM
GI50 (SF-539 CNS): > 100 µM
TGI (SF-539 CNS): > 100 µM
GI50 (SK-MEL-28 melanoma): > 100 µM
TGI (SK-MEL-28 melanoma): > 100 µM
GI50 (SK-MEL-5 melanoma): 2.56 µM
TGI (SK-MEL-5 melanoma): 18.1 µM
GI50 (SK-OV-3 ovarian): 17.6 µM
TGI (SK-OV-3 ovarian): > 100 µM
GI50 (SN12C renal): > 100 µM
TGI (SN12C renal): > 100 µM
GI50 (SNB-19 CNS): > 100 µM
TGI (SNB-19 CNS): > 100 µM
GI50 (SNB-75 CNS): > 100 µM
TGI (SNB-75 CNS): > 100 µM
GI50 (SR leukemia): 1.07 µM
TGI (SR leukemia): 3.5 µM
GI50 (SW-620 colon): > 100 µM
TGI (SW-620 colon): > 100 µM
GI50 (T-47D breast): 2.23 µM
TGI (T-47D breast): 67.4 µM
GI50 (TK-10 renal): > 100 µM
TGI (TK-10 renal): > 100 µM
GI50 (UACC-257 melanoma): 61.1 µM
TGI (UACC-257 melanoma): > 100 µM
GI50 (UACC-62 melanoma): 35.6 µM
TGI (UACC-62 melanoma): > 100 µM
GI50 (UO-31 renal): > 100 µM
TGI (UO-31 renal): > 100 µM
